Source: ChEMBL document CHEMBL5214930, “Discovery of the First Selective IDO2 Inhibitor As Novel Immunotherapeutic Avenues for Rheumatoid Arthritis” (J Med Chem, 2022)
The source made the active and inactive calls. The rule behind the calls is not given here.

Tests used:
[1] = biological target: T1, Indoleamine 2,3-dioxygenase 1 (Homo sapiens, UniProt P14902); assay: Inhibition of recombinant human IDO1 in HeLa cells at 100 nM relative to control; type: cell-based
Target sequence in this assay (P14902 whole entry, looked up): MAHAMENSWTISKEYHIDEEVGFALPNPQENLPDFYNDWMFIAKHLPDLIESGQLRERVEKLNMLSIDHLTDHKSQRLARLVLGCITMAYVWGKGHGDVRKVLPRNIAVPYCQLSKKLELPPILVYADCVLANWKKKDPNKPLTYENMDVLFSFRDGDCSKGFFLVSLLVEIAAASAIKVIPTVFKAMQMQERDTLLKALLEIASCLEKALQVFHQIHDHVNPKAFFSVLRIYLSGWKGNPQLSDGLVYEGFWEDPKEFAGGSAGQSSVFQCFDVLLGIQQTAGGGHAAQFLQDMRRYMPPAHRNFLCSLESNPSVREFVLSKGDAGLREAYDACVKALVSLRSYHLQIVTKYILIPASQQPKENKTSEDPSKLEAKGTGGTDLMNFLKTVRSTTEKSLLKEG

[2] = biological target: T2, Indoleamine 2,3-dioxygenase 2 (Homo sapiens) (UniProt Q6ZQW0); assay: Inhibition of recombinant human IDO2 in HeLa cells at […] relative to control; type: cell-based
T2 sequence (whole entry): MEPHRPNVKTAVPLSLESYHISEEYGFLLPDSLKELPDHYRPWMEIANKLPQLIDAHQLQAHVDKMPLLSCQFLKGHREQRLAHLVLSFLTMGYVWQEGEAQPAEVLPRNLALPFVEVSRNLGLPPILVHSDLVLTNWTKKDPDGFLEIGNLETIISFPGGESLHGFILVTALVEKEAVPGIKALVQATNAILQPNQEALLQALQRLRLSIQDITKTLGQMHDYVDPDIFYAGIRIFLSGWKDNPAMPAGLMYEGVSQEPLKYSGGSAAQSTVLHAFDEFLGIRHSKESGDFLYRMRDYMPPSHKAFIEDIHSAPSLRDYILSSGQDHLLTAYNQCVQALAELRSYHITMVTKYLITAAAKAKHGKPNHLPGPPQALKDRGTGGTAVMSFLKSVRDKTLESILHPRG

HeLa [3] = assay: Antiproliferative activity against human HeLa cells; type: functional, cell-based
[4] = biological target: T2, Indoleamine 2,3-dioxygenase 2 (Homo sapiens); assay: Inhibition of recombinant human IDO2 in HeLa cells at 100 nM relative to control; type: cell-based
[5] = biological target: T3, Indoleamine 2,3-dioxygenase 2 (Homo sapiens, UniProt Q6ZQW0); assay: Inhibition of IDO2 (unknown origin)
T3 sequence (Q6ZQW0 whole entry): T2 sequence (whole entry)

[6] = biological target: T1, Indoleamine 2,3-dioxygenase 1; assay: Inhibition of human IDO1
Target sequence in this assay (P14902 whole entry): as the sequence (P14902 whole entry, looked up) above

[7] = biological target: T3, Indoleamine 2,3-dioxygenase 2; assay: Inhibition of human IDO2
Mus musculus [8] = assay: Antiinflammatory activity against xylene-induced ear swelling ICR mouse model assessed as swelling rate at 100 mg/kg, IG measured after 1 hr (Activity = 58.21 +/- 12.79%); type: functional
Mus musculus [9] = assay: Antiinflammatory activity against xylene-induced ear swelling ICR mouse model assessed as swelling inhibition ratio at 100 mg/kg, IG measured after 1 hr; type: functional; parameters: scale not given: the % may be the effect or the level left
[10] = biological target: T1, Indoleamine 2,3-dioxygenase 1; assay: Inhibition of IDO1 (unknown origin)
Target sequence in this assay (P14902 whole entry): as the sequence (P14902 whole entry, looked up) above

HeLa [11] = assay: Antiproliferative activity against human HeLa cells at 5 uM; type: functional
Mus musculus [12] = assay: Antiarthritic activity against collagen-induced arthritis DBA/1J mouse model assessed as paw swelling at 15 mg/kg, ip administered from day 57 to 74 post CFA injection and measured every 3 days; type: functional, organism-based; settings: time 17.0 day

SMILES: O=C(NCc1cn(CCNc2nonc2/C(=N/O)NCc2ccc(Br)cc2)nn1)c1ccccn1
- inhibition [1]: 0%
- inhibition [2]: 1%
- EC50 (HeLa [3]): 3.42 µM

SMILES: O=C(NCc1cn(CCNc2nonc2/C(=N/O)Nc2ccc(F)cc2)nn1)c1ccccn1
- inhibition [1]: 4%
- inhibition [4]: 5%
- inhibition [2]: 30%
- EC50 (HeLa [3]): 1.38 µM

SMILES: O=C(NCc1cn(CCNc2nonc2/C(=N/O)Nc2ccc(F)c(C(F)(F)F)c2)nn1)c1ccccn1
- inhibition [1]: 44%
- inhibition [4]: 6%
- inhibition [2]: 40%
- EC50 (HeLa [3]): 0.456 µM

SMILES: O=C(NCc1cn(CCNc2nonc2/C(=N/O)NCc2ccccc2Br)nn1)c1ccccn1
- inhibition [1]: 5%
- inhibition [2]: 2%
- EC50 (HeLa [3]): 4.35 µM

SMILES: c1ccc(CCc2ccccc2-c2c[nH]nn2)cc1
- IC50 [5]: 51 µM

SMILES: O=C(NCc1cn(CCNc2nonc2/C(=N/O)Nc2ccc(F)c(Br)c2)nn1)c1ccc[nH]1
- inhibition [1]: 75%
- inhibition [4]: 51%
- inhibition [2]: 86%
- IC50 [6]: 0.047 µM
- IC50 [7]: 0.134 µM
- EC50 (HeLa [3]): 0.073 µM
- Activity (Mus musculus [8]): 27.84%
- Activity (Mus musculus [9]): 52.17%

SMILES: COc1ccc2[nH]c([S+]([O-])Cc3ncc(C)c(OC)c3C)nc2n1 (stereo unspecified) [TENATOPRAZOLE]
- IC50 [10]: > 100 µM
- IC50 [5]: 1.8 µM

SMILES: O=C(NCc1cn(CCNc2nonc2/C(=N/O)Nc2cccc(Cl)c2)nn1)c1ccccn1
- inhibition [1]: 69%
- inhibition [2]: 15%
- EC50 (HeLa [3]): 0.106 µM

SMILES: O=C(NCc1cn(CCNc2nonc2/C(=N/O)NCc2ccc(F)c(Br)c2)nn1)c1ccccn1
- inhibition [1]: 26%
- inhibition [2]: 5%
- EC50 (HeLa [3]): 1.79 µM

SMILES: C[C@H](N/C(=N\O)c1nonc1NCCn1cc(CNC(=O)c2ccc[nH]2)nn1)c1cccc(Br)c1
- inhibition [1]: 14%
- inhibition [2]: 15%
- Activity (HeLa [11]): 22.74%

SMILES: Cc1cc(Br)cc(N/C(=N\O)c2nonc2NCCn2cc(CNC(=O)c3ccccn3)nn2)c1
- inhibition [1]: 20%
- inhibition [4]: 14%
- inhibition [2]: 61%
- EC50 (HeLa [3]): 0.611 µM

SMILES: O=C(NCc1cn(CCNc2nonc2/C(=N/O)NCc2ccc(F)c(Br)c2)nn1)c1ccc[nH]1
- inhibition [1]: 17%
- inhibition [2]: 0%
- EC50 (HeLa [3]): 1.6 µM

SMILES: C[C@@H]1CCN(C(=O)CC#N)C[C@@H]1N(C)c1ncnc2[nH]ccc12
- Activity (Mus musculus [12]): Active

SMILES: O=C(NCc1cn(CCNc2nonc2/C(=N/O)Nc2ccc(F)c(Cl)c2)nn1)c1ccccn1
- inhibition [1]: 52%
- inhibition [4]: 16%
- inhibition [2]: 38%
- EC50 (HeLa [3]): 0.234 µM
